Measured values reported in US20250388568A1, “NLRP3 INHIBITORS” (Kodiak Sciences Inc., priority 2022, published 2025).
Where two headings read alike, the source gives them in different places.

How the values were obtained:
[1] = test system: IL-1β release in THP-1-ASC-GFP cells after NLRP3 activation; assay: IC50 determination of IL-1β release inhibition in THP-1-ASC-GFP cells; type: cell-based; conditions: THP1-ASC-GFP, read-out: IL-1β IC50 (nM) THP1 cells
Experimental: Example 78: IC50 Determination of IL-1β Release Inhibition in THP-1-ASC-GFP Cells The compounds were tested for their ability to inhibit the IL-1β release in the THP-1-ASC-GFP cells after NLRP3 activation. THP1-ASC-GFP cells (Invivogen […] thawed following Invivogen's initial culture procedure. […] The growth medium was composed of RPM1640 medium (Gibco 32404-014), 10% heat inactivated (HI) serum (Gibco A3840102), Pen/Strep (Quality Biologics 118-089-721), 10 mM Hepes (Quality Biologics 118-089-721), 2 mM Glutamax (GIBCO 35050-061), 100 μg/mL normocin (Invivogen ant-nr), 100 μg/mL Zeocin (Invivogen ant-zn). The growth medium was freshly prepared once a week and sterile filtered. Assay medium consisted of RPMI 1640 medium, 10 mM Hepes, 2 mM Glutamax and Pen/Strep. To the assay medium, 1 μg/mL LPS (Invivogen tlrl-3pelps) was added. A cell suspension was prepared with assay medium and LPS at 1.25M cells per mL. With an electronic pipet, 80 μl of cell suspension was added to U bottom 96 well polystyrene plates (VWR 10062-902) leaving columns 1 and 2 empty. The plates were placed in the incubator for 4 hours. […] DMSO). An hour prior to the end of LPS incubation, a separate 96 deep well plate, Plate B, was prepared with 400 μL of assay media per well, then 2 μL of the stock DMSO solution from Plate A was added to each corresponding well. Plate B was covered to avoid media evaporation. In a 50 mL tube, a solution of nigericin in assay media at […] concentration was prepared. To a new 96 deep well plate, Plate C, 200 μL of this nigericin containing media was dispensed to each well and […] of the test compounds from Plate A to each corresponding well was added. Plate C was covered to avoid media evaporation. After 4 hours of priming, all the media from the LPS treated THP-1 cells in the initial U bottom plate was removed manually. To this plate of primed cells, 80 μL/well test compounds from Plate B was added in duplicate columns (5 compounds tested per plate). The plate was placed in an incubator for 30 min. […] The plate was placed back in the incubator for 1 hour. At the end of 1 hour, the supernatant from this test plate was transferred to a new 96 well V bottom polypropylene plate which was frozen immediately at -80° C. The plate was transferred to -20° C. the next day and awaiting further determination of cytokine IL-1β level. The release of IL-1β into the cell media was determined by MSD® Multi-Spot Assay System (V-Plex, IL-1B kit, […]-4). Following the manufacture's protocol and using the Alternate Protocol 3, Dilute-In-Plate protocol specifically, the level of IL-1β in the above collected supernatant plate was measured as electrochemiluminescent signals. Using MSD DISCOVERY WORKBENCH® analysis software, the signals were converted to the concentration of IL-1β in each well. The IC50 values of the compounds were calculated using the Graph Pad Prism software based on the […] concentration determined. The detection range of IL-1β using MSD kit was approximately […] (based on various lots of standards purchased from MSD).

[2] = test system: IL-1β release in U937 cells after NLRP3 activation; assay: IC50 determination of IL-1β release inhibition in U937 cells; type: cell-based; conditions: Homo sapiens, read-out: IL-1β IC50 (nM) U937 cells
Experimental: Example 79: IC50 Determination of IL-1β Release Inhibition in U937 Cells The compounds of the present disclosure were tested for their ability to inhibit the IL-1β release in the U937 cells after NLRP3 activation. U937 cells (U-97 CRL 1593.2) were thawed following ATCC's initial culture procedure. […] The growth medium was composed of RPMI1640 medium (Quality Biological 112-040-101), 10% serum (Corning 35-076-CV), Pen/Strep (GIBCO 15140-122), 10 mM Hepes (Quality Biological 118-089-721), 2 mM Glutamax (GIBCO 35050-061), and 100 μg/mL normocin (Invivogen ant-nr)-Differentiating media was prepared by adding Phorbol 12-myristate 13-acetate (PMA) (AdipoGen AG-CN2-0010-M005) to growth medium. A cell suspension was prepared with differentiating media at 500k cells/ml. With an electronic pipet, 200 ul of cell suspension was added to each well (96w white plate Corning 3903) leaving columns 1 and 2 empty. Plates were left in the biosafety cabinet for 15 min and then placed in incubator for 90 hours. Priming media was prepared with assay medium consisting of RPMI 1640 medium, 10 mM Hepes, 2 mM Glutamax and Pen/Strep plus 1 μg/mL LPS (Invivogen tlrl-3pelps). Differentiating media was manually removed and 80 ul of priming media was added to each well with an electronic pipet. The plates were placed in the incubator for 5 hours. […] DMSO). An hour prior to the end of LPS incubation, a separate 96 deep well plate, Plate B, was prepared with 400 μL of assay media per well, then […] of the stock DMSO solution from Plate A was added to each corresponding well. Plate B was covered to avoid media evaporation. In a 50 mL tube, a solution of nigericin in assay media at 50 uM/mL concentration was prepared. To a new 96 deep well plate, Plate C, 200 μL of this nigericin containing media was dispensed to each well and 1 μL of the test compounds from Plate B to each corresponding well was added. Plate C was covered to avoid media evaporation. After 5 hours of priming, all the media from the LPS treated U937 cells was removed manually. To this plate of primed cells, 80 μL/well test compounds from Plate B (assay media+compound) was added in duplicate columns (5 compounds tested per plate). The plate was placed in an incubator for 30 min. […] The plate was placed back in the incubator for 1 hour. At the end of 1 hour, the supernatant from this test plate was transferred to a new 96 well V bottom polypropylene plate which was frozen immediately at -80° C. The plate was transferred to -20° C. the next day and awaited further determination of cytokine IL-Ip level. The release of IL-1β into the cell media was determined by MSD® Multi-Spot Assay System (V-Plex, IL-1B kit, […]-4). Following the manufacture's protocol and using the Alternate Protocol 3, Dilute-In-Plate protocol specifically, the level of IL-IP in the above collected supernatant plate was measured as electrochemiluminescent signals. Using MSD DISCOVERY WORKBENCH® analysis software, the signals were converted to the concentration of IL-1β in each well. The IC50 values of the compounds were calculated using the Graph Pad Prism software based on the IL-1β concentration determined. The detection range of IL-1β using MSD kit was approximately […] (based on various lots of standards purchased from MSD).

[3] = THP-1-ASC-GFP cells, LPS priming 4 h, nigericin, average of at least three experiments
[4] = U-937, PMA-differentiated U937 cells, LPS priming 5 h, nigericin, average of at least three experiments

IC50 [1, 3] | IC50 [2, 4] | Compound | IC50 ([1]; 4 h) | IC50 ([2]; U-937, 5 h)
< 5 nM | < 5 nM | Cc1oc(S(=N)(=O)NC(=O)Nc2c3c(cc4c2CCC4)CCC3)cc1CN1CCC[C@H]1CO (stereo partly drawn) [Example 8, N-((1,2,3,5,6,7-hexahydro-s-indacen-4-yl)carbamoyl)-4-(((S)-2-(hydroxymethyl)pyrrolidin-1-yl)methyl)-5-methylfuran-2-sulfonimidamide] | – | –
< 5 nM | 5 to 50 nM | Cc1oc(S(=N)(=O)NC(=O)Nc2c3c(cc4c2CCC4)CCC3)cc1CN(C)CC1(CO)CCC1 (stereo not shown) [Example 9, N-((1,2,3,5,6,7-hexahydro-s-indacen-4-yl)carbamoyl)-4-((((1-(hydroxymethyl)cyclobutyl)methyl)(methyl)amino)methyl)-5-methylfuran-2-sulfonimidamide] | – | –
< 5 nM | 5 to 50 nM | Cc1oc(S(=N)(=O)NC(=O)Nc2c3c(cc4c2CCC4)CCC3)cc1CN(C)CC1(CO)CCOCC1 (stereo not shown) [Example 10, N-((1,2,3,5,6,7-hexahydro-s-indacen-4-yl)carbamoyl)-4-((((4-(hydroxymethyl)tetrahydro-2H-pyran-4-yl)methyl)(methyl)amino)methyl)-5-methylfuran-2-sulfonimidamide] | – | –
< 5 nM | 5 to 50 nM | Cc1oc(S(=N)(=O)NC(=O)Nc2c3c(cc4c2CCC4)CCC3)cc1CN(C)CC1(O)CC1 (stereo not shown) [Example 11, N-((1,2,3,5,6,7-hexahydro-s-indacen-4-yl)carbamoyl)-4-((((1-hydroxycyclopropyl)methyl)(methyl)amino)methyl)-5-methylfuran-2-sulfonimidamide] | – | –
< 5 nM | < 5 nM | Cc1oc(S(=N)(=O)NC(=O)Nc2c3c(cc4c2CCC4)CCC3)cc1CN(C)CC1(O)CCC1 (stereo not shown) [Example 12, N-((1,2,3,5,6,7-hexahydro-s-indacen-4-yl)carbamoyl)-4-((((1-hydroxycyclobutyl)methyl)(methyl)amino)methyl)-5-methylfuran-2-sulfonimidamide] | – | –
< 5 nM | 5 to 50 nM | Cc1oc(S(=N)(=O)NC(=O)Nc2c3c(c(F)c4c2CCC4)CCC3)cc1CN(C)CC1(CO)CCC1 (stereo not shown) [Example 13, N-((8-fluoro-1,2,3,5,6,7-hexahydro-s-indacen-4-yl)carbamoyl)-4-((((1-(hydroxymethyl)cyclobutyl)methyl)(methyl)amino)methyl)-5-methylfuran-2-sulfonimidamide] | – | –
< 5 nM | 5 to 50 nM | Cc1oc(S(=N)(=O)NC(=O)Nc2c3c(c(F)c4c2CCC4)CCC3)cc1CN1CC(O)C1 (stereo not shown) [Example 14, N-((8-fluoro-1,2,3,5,6,7-hexahydro-s-indacen-4-yl)carbamoyl)-4-((3-hydroxyazetidin-1-yl)methyl)-5-methylfuran-2-sulfonimidamide] | – | –
< 5 nM | 5 to 50 nM | CC(C)n1nc(S(=N)(=O)NC(=O)Nc2c3c(cc4c2CCC4)CCC3)cc1CN1CC(O)C1 (stereo not shown) [Example 19, N-((1,2,3,5,6,7-hexahydro-s-indacen-4-yl)carbamoyl)-5-((3-hydroxyazetidin-1-yl)methyl)-1-isopropyl-1H-pyrazole-3-sulfonimidamide] | – | –
< 5 nM | 5 to 50 nM | CC(C)n1nc(S(=N)(=O)NC(=O)Nc2c3c(cc4c2CCC4)CCC3)cc1CN1CCC[C@@H]1CO (stereo partly drawn) [Example 20, N-((1,2,3,5,6,7-hexahydro-s-indacen-4-yl)carbamoyl)-5-(((R)-2-(hydroxymethyl)pyrrolidin-1-yl)methyl)-1-isopropyl-1H-pyrazole-3-sulfonimidamide] | – | –
< 5 nM | < 5 nM | CC(C)n1nc(S(=N)(=O)NC(=O)Nc2c3c(cc4c2CCC4)CCC3)cc1CN1CCC[C@H]1CO (stereo partly drawn) [Example 21, N-((1,2,3,5,6,7-hexahydro-s-indacen-4-yl)carbamoyl)-5-(((S)-2-(hydroxymethyl)pyrrolidin-1-yl)methyl)-1-isopropyl-1H-pyrazole-3-sulfonimidamide] | – | –
– | – | CC(C)NCc1coc(S(=N)(=O)NC(=O)Nc2c3c(cc4c2CCC4)CCC3)c1 (stereo not shown) [Example 23, N-((1,2,3,5,6,7-hexahydro-s-indacen-4-yl)carbamoyl)-4-((isopropylamino)methyl)furan-2-sulfonimidamide] | < 5 nM | < 5 nM
< 5 nM | 5 to 50 nM | Cc1oc(S(=N)(=O)NC(=O)Nc2c3c(cc4c2CCC4)CCC3)cc1CN (stereo not shown) [Example 24, 4-(aminomethyl)-N-((1,2,3,5,6,7-hexahydro-s-indacen-4-yl)carbamoyl)-5-methylfuran-2-sulfonimidamide] | – | –
– | – | Cc1oc(S(=N)(=O)NC(=O)Nc2c3c(cc4c2CCC4)CCC3)cc1CNC(C)C (stereo not shown) [Example 25, N-((1,2,3,5,6,7-hexahydro-s-indacen-4-yl)carbamoyl)-4-((isopropylamino)methyl)-5-methylfuran-2-sulfonimidamide] | < 5 nM | < 5 nM
5 to 50 nM | 5 to 50 nM | CN(Cc1coc(S(=O)(=O)NC(=O)Nc2c3c(cc4c2CCC4)CCC3)c1)CC1(O)CCC1 [Example 33, N-((1,2,3,5,6,7-hexahydro-s-indacen-4-yl)carbamoyl)-4-((((1-hydroxycyclobutyl)methyl)(methyl)amino)methyl)furan-2-sulfonamide] | – | –
